Experimental data published in paper PMC5515969, “Effects of 31 FDA approved small-molecule kinase inhibitors on isolated rat liver mitochondria” (Archives of Toxicology, 2016).
Counter-ions that a name gives are not always drawn. Like-named read-outs stand apart in the source and are kept apart here. Values belong to the compound of their own block, whether it stands above or below them.

Experiments:
[1] = cited from earlier work
[2] = cited from earlier work; remark: listed apart in the source
[3] = system: isolated rat liver mitochondria
[4] = system: isolated rat liver mitochondria; assay: Mitochondrial ROS production (CM-H2DCFDA); conditions: positive control, 100 µM CaCl2; DMSO-treated = 1
[5] = human therapeutic Cmax at FDA recommended dosages, ref product labeling and drug approval packages at the official FDA website

SMILES: CN(C)C/C=C/C(=O)Nc1cc2c(Nc3ccc(F)c(Cl)c3)ncnc2cc1O[C@H]1CCOC1 [Afatinib]
Cmax [1, 5]: 0.04 µM | labeling for DILI ([2]; W&P warnings and precautions, BBW black box warnings, ref FDA product labeling): W&P: ALT↑/monitoring | DILI potential (based on labeling) ([2]; ref FDA product labeling): 1

SMILES: Cc1nc(Nc2ncc(C(=O)Nc3c(C)cccc3Cl)s2)cc(N2CCN(CCO)CC2)n1 [Dasatinib]
Cmax [1, 5]: 0.18 µM | DILI potential (based on labeling) ([2]; ref FDA product labeling): 0

SMILES: Cc1ccc(NC(=O)c2ccc(CN3CCN(C)CC3)cc2)cc1Nc1nccc(-c2cccnc2)n1 [Imatinib]
DILI potential (based on labeling) ([2]; in vivo): 1 | labeling for DILI ([2]; in vivo): W&P: fatal DILI

SMILES: CC(=O)c1c(C)c2cnc(Nc3ccc(N4CCNCC4)cn3)nc2n(C2CCCC2)c1=O [Palbociclib]
Cmax [1, 5]: 0.24 µM | DILI potential (based on labeling) ([2]; ref FDA product labeling): 0

SMILES: C[C@@H]1CCN(C(=O)CC#N)C[C@@H]1N(C)c1ncnc2[nH]ccc12 [Tofacitinib]
lowest concentration causing cytochrome c release ([3]; rat, 30 min, pH 7.4): 100 fold Cmax | Cmax [1, 5]: 0.09 µM

SMILES: [Ca+2].[Cl-].[Cl-] [calcium chloride]
increase in ROS production [4]: threefold

SMILES: Cc1ccc(NC(=O)c2ccc(CN3CCN(C)CC3)cc2)cc1Nc1nccc(-c2cccnc2)n1 [imatinib mesylate]
Cmax ([1]; read-out: Cmax at µM, therapeutic maximal blood concentration, ref product labeling): 2 µM | Cmax ([1]; therapeutic maximal blood concentration, ref product labeling): 986 ng/mL | Labeling for DILI ([2]; in vivo): W&P: fatal DILI

cytochrome c release from intact mitochondria [3]: significant cytochrome c release
SMILES: CNS(=O)(=O)C[C@H]1CC[C@H](N(C)c2ncnc3[nH]ccc23)CC1 [oclacitinib]
